The results in this text go back to patent EP0647627A1, “1,2-Dihydro-2-oxo-3-methylsulfonylaminomethyl-pyridines as angiotensin II antagonists” (MERCK PATENT GmbH, priority 1993, dated 1995).

Each structure is given as a SMILES string.

A short description of the experiment: Angiotensin II antagonism at the rat adrenal gland, IC50 (method of A.T. Chiu et al., J. Pharmacol. Exp. Therap. 250, 867-874 (1989)). It is filed as binding, Ratten. To be noted: an der Rattennebenniere; Iy and Iz tested as K-Salze; read-out: IC 50-Werte. From the text: Diese Wirkungen können nach üblichen in vitro- oder in vivo-Methoden ermittelt werden, wie sie z.B. in der US-PS 4 880 804, der US-PS 5 036 048 und der WO 91/14367 beschrieben sind, ferner von A.T. Chiu et al., J. Pharmacol. Exp. Therap. 250, 867-874 (1989), und von P.C. Wong et al., ibid. 252, 719-725 (1990; in vivo, an Ratten).
So zeigten die K-Salze von 1,2-Dihydro-1-(2'-(1H-5-tetrazolyl)-biphenylyl-4-methyl)-2-oxo-3-N-methyl- bzw. -3-N-isopropyl-N-methylsulfonylaminomethyl-6-butyl-pyridin ("Iy" bzw. "Iz") an der Rattennebenniere (Versuchsmethodik vgl. A.T.Chiu et al., l.c.) IC 50-Werte von 1,15 bzw. 1,9 nM.l-¹, wahrend das bekannte 1,2-Dihydro-1-(2'-(1H-5-tetrazolyl)biphenylyl-4-methyl)-2-oxo-3-methylsulfonylaminomethyl-6-butyl-pyridin (vgl. EP 0 530 702 A1, Beispiel 22) im gleichen Test einen IC 50-Wert von 4,0 nM · l⁻¹ aufwies.
With `CCCCc1ccc(CNS(C)(=O)=O)c(=O)n1Cc1ccc(-c2ccccc2-c2nn[nH]n2)cc1` [EP 0 530 702 A1, Beispiel 22, 1,2-Dihydro-1-(2'-(1H-5-tetrazolyl)biphenylyl-4-methyl)-2-oxo-3-methylsulfonylaminomethyl-6-butyl-pyridin, reference compound], the IC50 was determined as 4 nM. As to `CCCCc1ccc(CN(C)S(C)(=O)=O)c(=O)n1Cc1ccc(-c2ccccc2-c2nn[nH]n2)cc1` [Iy, 1,2-Dihydro-1-(2'-(1H-5-tetrazolyl)-biphenylyl-4-methyl)-2-oxo-3-N-methyl-N-methylsulfonyl-aminomethyl-6-butyl-pyridin], the IC50 is 1.15 nM. To `CCCCc1ccc(CN(C(C)C)S(C)(=O)=O)c(=O)n1Cc1ccc(-c2ccccc2-c2nn[nH]n2)cc1` [Iz, 1,2-Dihydro-1-(2'-(1H-5-tetrazolyl)-biphenylyl-4-methyl)-2-oxo-3-N-isopropyl-N-methylsulfonyl-aminomethyl-6-butyl-pyridin] belongs 1.9 nM.
